# Laboratory results published in patent publication US9833497B2, “Human originated EGF domain proteins and use of the same” (CHENGDU SOURCEBIO LIMITED-LIABILITY COMPANY, priority 2013, dated 2017).
# Experiments:
# Type in all cases: cell-based
# E. coli DH5α = test: Antibacterial activity: MIC and growth curve against E. coli DH5α in 96-well plate; conditions: minimal inhibitory concentration against E. coli DH5α; 96-well plate, 5×10^5 CFU/mL, 37° C., judged after 8 h
# How it was run: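 Log-phase bacteria (OD600 ~0.5) resuspended in LB at 5×10^5 CFU/mL, exposed to recombinant protein at 50, 25, 12.5 μg/mL final in triplicate, 37 °C shaking at 175 rpm. OD600 read every 30 min; MIC is lowest concentration showing no growth.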
# E. coli BL21 = test: MIC against Gram-negative bacteria: E. coli BL21
# How it was run: (§1)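 MIC = lowest concentration of recombinant protein showing no growth. Test proteins: purified human-derived EGF domain proteins, two-fold dilution series, three wells per concentration; inoculum 5×10^5 CFU/mL in LB; incubation 37° C with shaking at 175 rpm.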
# Pseudomonas aeruginosa = test: MIC against Gram-negative bacteria: Pseudomonas aeruginosa
# How it was run: as §1
# Klebsiella pneumonia = test: MIC against Gram-negative bacteria: Klebsiella pneumonia
# How it was run: as §1
# Enterobacter cloacae = test: MIC against Gram-negative bacteria: Enterobacter cloacae
# How it was run: as §1
# Aeromonas hydrophila = test: MIC against Gram-negative bacteria: Aeromonas hydrophila
# How it was run: as §1
# Citrobacter diversus = test: MIC against Gram-negative bacteria: Citrobacter diversus
# How it was run: as §1
# Moraxella catarrhalis = test: MIC against Gram-negative bacteria: Moraxella catarrhalis
# How it was run: as §1
# Proteus mirabilis = test: MIC against Gram-negative bacteria: Proteus mirabilis
# How it was run: as §1
# Proteus vulgaris = test: MIC against Gram-negative bacteria: Proteus vulgaris
# How it was run: as §1
# Serratia marcescens = test: MIC against Gram-negative bacteria: Serratia marcescens
# How it was run: as §1
# [1] = E. coli BL21, 10 h cultivation at 37° C., 5×10^5 CFU/mL
# [2] = P. aeruginosa, 10 h cultivation at 37° C., 5×10^5 CFU/mL
# [3] = K. pneumonia, 10 h cultivation at 37° C., 5×10^5 CFU/mL
# [4] = E. cloacae, 10 h cultivation at 37° C., 5×10^5 CFU/mL
# [5] = A. hydrophila, 10 h cultivation at 37° C., 5×10^5 CFU/mL
# [6] = C. diversus, 10 h cultivation at 37° C., 5×10^5 CFU/mL
# [7] = M. catarrhalis, 10 h cultivation at 37° C., 5×10^5 CFU/mL
# [8] = P. mirabilis, 10 h cultivation at 37° C., 5×10^5 CFU/mL
# [9] = P. vulgaris, 10 h cultivation at 37° C., 5×10^5 CFU/mL
# [10] = S. marcescens, 10 h cultivation at 37° C., 5×10^5 CFU/mL
# [11] = E. coli BL21, 96-well plate, 5×10^5 CFU/mL, 37° C., 10 h
# [12] = Pseudomonas aeruginosa, 96-well plate, 5×10^5 CFU/mL, 37° C., 10 h
# [13] = Klebsiella pneumonia, 96-well plate, 5×10^5 CFU/mL, 37° C., 10 h
# [14] = Enterobacter cloacae, 96-well plate, 5×10^5 CFU/mL, 37° C., 10 h
# [15] = Aeromonas hydrophila, 96-well plate, 5×10^5 CFU/mL, 37° C., 10 h
# [16] = Citrobacter diversus, 96-well plate, 5×10^5 CFU/mL, 37° C., 10 h
# [17] = Moraxella catarrhalis, 96-well plate, 5×10^5 CFU/mL, 37° C., 10 h
# [18] = Proteus mirabilis, 96-well plate, 5×10^5 CFU/mL, 37° C., 10 h
# [19] = Proteus vulgaris, 96-well plate, 5×10^5 CFU/mL, 37° C., 10 h
# [20] = Serratia marcescens, 96-well plate, 5×10^5 CFU/mL, 37° C., 10 h
# [21] = 96-well plate, 5×10^5 CFU/mL, 37° C., 10 h
substance,measurement,setting,value
PRT172 (CADGPCFNGGRCSDSPDGGYSCRCPVGYSGFNC; listed as Homo sapiens),MIC,E. coli DH5α,12.5 µg/mL
same,MIC (μg/mL) E. coli BL21,E. coli BL21; [1],25 µg/mL
same,MIC (μg/mL) P. aeruginosa,Pseudomonas aeruginosa; [2],50 µg/mL
same,MIC (μg/mL) K. pneumonia,Klebsiella pneumonia; [3],25 µg/mL
same,MIC (μg/mL) E. cloacae,Enterobacter cloacae; [4],12.5 µg/mL
same,MIC (μg/mL) A. hydrophila,Aeromonas hydrophila; [5],12.5 µg/mL
same,MIC (μg/mL) C. diversus,Citrobacter diversus; [6],12.5 µg/mL
same,MIC (μg/mL) M. catarrhalis,Moraxella catarrhalis; [7],12.5 µg/mL
same,MIC (μg/mL) P. mirabilis,Proteus mirabilis; [8],12.5 µg/mL
same,MIC (μg/mL) P. vulgaris,Proteus vulgaris; [9],12.5 µg/mL
same,MIC (μg/mL) S. marcescens,Serratia marcescens; [10],12.5 µg/mL
PRT1319 (SMGDCGPTGLAQHCHLHARCVSQEGVARCRCLDGFEGDGFS; listed as Homo sapiens),MIC,E. coli DH5α,12.5 µg/mL
same,MIC against E. coli BL21,E. coli BL21; [11],50 µg/mL
same,MIC against P. aeruginosa,Pseudomonas aeruginosa; [12],12.5 µg/mL
same,MIC against K. pneumonia,Klebsiella pneumonia; [13],25 µg/mL
same,MIC against E. cloacae,Enterobacter cloacae; [14],25 µg/mL
same,MIC against A. hydrophila,Aeromonas hydrophila; [15],25 µg/mL
same,MIC against C. diversus,Citrobacter diversus; [16],12.5 µg/mL
same,MIC against M. catarrhalis,Moraxella catarrhalis; [17],25 µg/mL
same,MIC against P. mirabilis,Proteus mirabilis; [18],25 µg/mL
same,MIC against P. vulgaris,Proteus vulgaris; [19],12.5 µg/mL
same,MIC against S. marcescens,Serratia marcescens; [20],12.5 µg/mL
PRT538 (CPCPLPHLANFAESCYRKNGAVRCICNENYAGPNCERCAPGYYGNPLLIGSTCKK; listed as Homo sapiens),MIC,E. coli DH5α,25 µg/mL
same,MIC against E. coli BL21,E. coli BL21; [21],12.5 µg/mL
same,MIC against P. aeruginosa,Pseudomonas aeruginosa; [21],25 µg/mL
same,MIC against K. pneumonia,Klebsiella pneumonia; [21],12.5 µg/mL
same,MIC against E. cloacae,Enterobacter cloacae; [21],25 µg/mL
same,MIC against A. hydrophila,Aeromonas hydrophila; [21],12.5 µg/mL
same,MIC against C. diversus,Citrobacter diversus; [21],25 µg/mL
same,MIC against M. catarrhalis,Moraxella catarrhalis; [21],12.5 µg/mL
same,MIC against P. mirabilis,Proteus mirabilis; [21],12.5 µg/mL
same,MIC against P. vulgaris,Proteus vulgaris; [21],12.5 µg/mL
same,MIC against S. marcescens,Serratia marcescens; [21],50 µg/mL
PRT879 (TLKQCASAPCRNGGVCREGWNRFICDCIGTGFLGRVCE; listed as Homo sapiens),MIC,E. coli DH5α,25 µg/mL
same,MIC (μg/mL) E. coli BL21,E. coli BL21; [1],50 µg/mL
same,MIC (μg/mL) P. aeruginosa,Pseudomonas aeruginosa; [2],12.5 µg/mL
same,MIC (μg/mL) K. pneumonia,Klebsiella pneumonia; [3],12.5 µg/mL
same,MIC (μg/mL) E. cloacae,Enterobacter cloacae; [4],25 µg/mL
same,MIC (μg/mL) A. hydrophila,Aeromonas hydrophila; [5],12.5 µg/mL
same,MIC (μg/mL) C. diversus,Citrobacter diversus; [6],25 µg/mL
same,MIC (μg/mL) M. catarrhalis,Moraxella catarrhalis; [7],12.5 µg/mL
same,MIC (μg/mL) P. mirabilis,Proteus mirabilis; [8],12.5 µg/mL
same,MIC (μg/mL) P. vulgaris,Proteus vulgaris; [9],12.5 µg/mL
same,MIC (μg/mL) S. marcescens,Serratia marcescens; [10],25 µg/mL
PRT645 (EINECTVNPDICGAGHCINLPVRYTCICYEGYRFSEQQ; listed as Homo sapiens),MIC,E. coli DH5α,50 µg/mL
same,MIC E. coli BL21,E. coli BL21; [21],25 µg/mL
same,MIC P. aeruginosa,Pseudomonas aeruginosa; [21],12.5 µg/mL
same,MIC K. pneumonia,Klebsiella pneumonia; [21],25 µg/mL
same,MIC E. cloacae,Enterobacter cloacae; [21],50 µg/mL
same,MIC A. hydrophila,Aeromonas hydrophila; [21],25 µg/mL
same,MIC C. diversus,Citrobacter diversus; [21],12.5 µg/mL
same,MIC M. catarrhalis,Moraxella catarrhalis; [21],50 µg/mL
same,MIC P. mirabilis,Proteus mirabilis; [21],12.5 µg/mL
same,MIC P. vulgaris,Proteus vulgaris; [21],50 µg/mL
same,MIC S. marcescens,Serratia marcescens; [21],12.5 µg/mL
PRT1331 (EIDPCADGLNGGCHEHATCKMTGPGKHKCECKSHYVGDGLNCE; listed as Homo sapiens),MIC,E. coli DH5α,25 µg/mL
same,MIC against E. coli BL21,E. coli BL21; [11],50 µg/mL
same,MIC against P. aeruginosa,Pseudomonas aeruginosa; [12],25 µg/mL
same,MIC against K. pneumonia,Klebsiella pneumonia; [13],12.5 µg/mL
same,MIC against E. cloacae,Enterobacter cloacae; [14],50 µg/mL
same,MIC against A. hydrophila,Aeromonas hydrophila; [15],12.5 µg/mL
same,MIC against C. diversus,Citrobacter diversus; [16],25 µg/mL
same,MIC against M. catarrhalis,Moraxella catarrhalis; [17],50 µg/mL
same,MIC against P. mirabilis,Proteus mirabilis; [18],25 µg/mL
same,MIC against P. vulgaris,Proteus vulgaris; [19],12.5 µg/mL
same,MIC against S. marcescens,Serratia marcescens; [20],25 µg/mL
PRT1042 (SGFFCPSTHSCQNGGVFQTPQGSCSCPPGWMGTICS; listed as Homo sapiens),MIC,E. coli DH5α,25 µg/mL
same,MIC,"E. coli BL21; E. coli BL21, 10 h cultivation at 37° C.",50 µg/mL
same,MIC,"Pseudomonas aeruginosa; P. aeruginosa, 10 h cultivation at 37° C.",12.5 µg/mL
same,MIC,"Klebsiella pneumonia; K. pneumonia, 10 h cultivation at 37° C.",25 µg/mL
same,MIC,"Enterobacter cloacae; E. cloacae, 10 h cultivation at 37° C.",50 µg/mL
same,MIC,"Aeromonas hydrophila; A. hydrophila, 10 h cultivation at 37° C.",50 µg/mL
same,MIC,"Citrobacter diversus; C. diversus, 10 h cultivation at 37° C.",50 µg/mL
same,MIC,"Moraxella catarrhalis; M. catarrhalis, 10 h cultivation at 37° C.",12.5 µg/mL
same,MIC,"Proteus mirabilis; P. mirabilis, 10 h cultivation at 37° C.",50 µg/mL
same,MIC,"Proteus vulgaris; P. vulgaris, 10 h cultivation at 37° C.",25 µg/mL
same,MIC,"Serratia marcescens; S. marcescens, 10 h cultivation at 37° C.",50 µg/mL
